This is an account of results in ChEMBL document CHEMBL4665541, “Search for new therapeutic options for the uncommon pathogen Mycobacterium chimaera: an open drug discovery approach” (Lancet Microbe, 2021).

Assay type in all cases: functional, organism-based
What all share (parameters): conc 20 uM

Assay [1] concerns Mycobacterium intracellulare subsp. chimaera. Description: (§1) Inhibition of mycobacterial growth using the resazurin microtitre cell viability assay (REMA), compounds at final concentration of 20 µM (2% v/v DMSO). Hits were classed as compounds that inhibited bacterial growth by 70% or more compared to drug-free controls. The following applies: NCTC13781. In general terms: The colour change of resazurin is a common sign of viable cells or microbes.

Assay [2] relates to Mycobacteroides abscessus. Described as §1. The settings on record: ATCC19977.
In assay [3] the test system is Mycobacterium tuberculosis. The description is as §1. The settings on record: H37Rv.

On to MMV688938, for which the figures for the Survival in assay [1], in assay [2] and in assay [3] were 88.3%, 118% and 119%, respectively.
For MMV661713, the Survival was 47.5% in assay [1], 112% in assay [2] and 25.2% in assay [3].
The corresponding values for MMV688888 are 37.8%, 95.5% and 23.3%.
Regarding MMV687803, the Survival in assay [1] was 10.8%; in assay [2], 24.5%; in assay [3] it was 17.4%.
The corresponding values for MMV688417 are 106%, 104% and 82.3%.
For MMV007625, in that order: 104%, 123% and 90.4%.
The corresponding values for MMV659004 are 100%, 112% and 6.84%.
Regarding MMV024406, the results for the Survival in assay [1], in assay [2] and in assay [3] were 100%, 114% and 89%, respectively.
For MMV676162, in that order: 112%, 117% and 93.3%.
For MMV020120, the values for the Survival in assay [1], in assay [2] and in assay [3] were 104%, 122% and 94.3%, respectively.
The corresponding values for MMV688547 are 102%, 116% and 95.2%.
For MMV688364, in that order: 89.9%, 111% and 82.7%.
With MMV028694, the figures for the Survival in assay [1], in assay [2] and in assay [3] were 91.4%, 113% and 88.7%, respectively.
For MMV676445, in that order: 74.2%, 111% and 30%.
The corresponding values for MMV007803 are 105%, 101% and 97.5%.
Consider MMV024443, for which the Survival in assay [1] is 101%; in assay [2] it was 94.5%; in assay [3], 102%.
For MMV688991, in that order: 90.1%, 98.3% and 82.1%.
For MMV688775, in that order: 1.46%, 15.1% and 4.71%.
For MMV676603, the Survival is 101% in assay [1], 112% in assay [2] and 38.4% in assay [3].
With MMV019742, the Survival was 97.5% in assay [1], 103% in assay [2] and 96% in assay [3].
For MMV676161, in that order: 103%, 114% and 80.2%.
The corresponding values for MMV689758 are 1.81%, 19.8% and 5.64%.
For MMV1019989, in that order: 107%, 99% and 105%.
For MMV688125, the Survival in assay [1] was 107%; in assay [2], 114%; in assay [3], 13.8%.
For MMV020982, in that order: 103%, 124% and 84.3%.
As for MMV687796, the values for the Survival in assay [1], in assay [2] and in assay [3] were 102%, 99% and 9.75%, respectively.
The corresponding values for MMV676382 are 99%, 122% and 88.4%.
For MMV676571, in that order: 100%, 115% and 59.4%.
For MMV676877, in that order: 106%, 107% and 90.2%.
For the substance MMV000062, the results for the Survival in assay [1], in assay [2] and in assay [3] were 85.2%, 109% and 18.8%, respectively.
Regarding MMV006239, the values for the Survival in assay [1], in assay [2] and in assay [3] were 94.8%, 112% and 86.9%, respectively.
The corresponding values for MMV676064 are 102%, 117% and 96.8%.
With MMV688771, the Survival in assay [1] was 91.7%; in assay [2], 98.2%; in assay [3], 91.4%.
For MMV688958, in that order: 97.7%, 109% and 91.1%.
Regarding MMV688410, the Survival was 105% in assay [1], 105% in assay [2] and 95.3% in assay [3].
As to MMV010764, the values for the Survival in assay [1], in assay [2] and in assay [3] were 94.1%, 101% and 88.8%, respectively.
The corresponding values for MMV688756 are 2.59%, 50% and 13.4%.
For MMV020388, in that order: 102%, 113% and 88.5%.
For MMV002817, in that order: 100%, 118% and 90.6%.
For MMV024311, the Survival in assay [1] is 106%; in assay [2], 96.6%; in assay [3] it was 74.4%.
For MMV688469, in that order: 82.8%, 87.3% and 90.9%.
On to MMV688407, for which the Survival in assay [1] was 106%; in assay [2], 116%; in assay [3], 94%.
For MMV688798, in that order: 95.2%, 103% and 102%.
For MMV676260, in that order: 97.1%, 108% and 84.8%.
For MMV553002, in that order: 66.4%, 113% and 34.8%.
As to MMV676444, the values for the Survival in assay [1], in assay [2] and in assay [3] were 97.5%, 113% and 56.3%, respectively.
In the case of MMV689061, the Survival was 127% in assay [1], 118% in assay [2] and 122% in assay [3].
The corresponding values for MMV024035 are 98.3%, 117% and 85.9%.
For the substance MMV676470, the Survival in assay [1] was 100%; in assay [2], 115%; in assay [3], 90.7%.
The corresponding values for MMV023860 are 90.3%, 117% and 84.6%.
For MMV688124, the Survival in assay [1] is 107%; in assay [2], 116%; in assay [3], 94.7%.
The corresponding values for MMV020537 are 62.7%, 105% and 94.1%.
The corresponding values for MMV006372 are 98.4%, 111% and 101%.
For MMV019234, in that order: 92.9%, 125% and 78.1%.
For MMV689480, the Survival in assay [1] was 95.5%; in assay [2], 112%; in assay [3], 98.5%.
For the substance MMV688994, the figures for the Survival in assay [1], in assay [2] and in assay [3] were 80%, 101% and 13.7%, respectively.
The corresponding values for MMV010545 are 86.4%, 111% and 91.4%.
For MMV688330, in that order: 103%, 99.9% and 99.6%.
For MMV688555, in that order: 92.5%, 108% and 46.8%.
On to MMV099637, for which the Survival in assay [1] was 95.3%; in assay [2] it was 98.4%; in assay [3], 109%.
The corresponding values for MMV1037162 are 107%, 97.5% and 107%.
Turning to MMV687765, the Survival in assay [1] was 59%; in assay [2] it was 116%; in assay [3], 26.4%.
For MMV063404, in that order: 90.4%, 108% and 33.5%.
For MMV688846, in that order: 112%, 20.9% and 69.2%.
Regarding MMV021013, the Survival in assay [1] was 88%; in assay [2], 108%; in assay [3], 100%.
For MMV688943, in that order: 100%, 112% and 89.7%.
For MMV688470, in that order: 95.7%, 106% and 94.8%.
The corresponding values for MMV006901 are 120%, 102% and 86.8%.
For the substance MMV022236, the values for the Survival in assay [1], in assay [2] and in assay [3] were 109%, 119% and 109%, respectively.
For MMV687239, the Survival in assay [1] is 97.5%; in assay [2] it was 108%; in assay [3], 68.1%.
The corresponding values for MMV676588 are 76.5%, 102% and 19.7%.
As for MMV019838, the Survival is 81.2% in assay [1], 124% in assay [2] and 84.2% in assay [3].
MMV688776: the Survival was 100% in assay [1], 115% in assay [2] and 127% in assay [3].
For MMV688934, in that order: 104%, 112% and 101%.
For MMV688313, in that order: 104%, 94.8% and 102%.
The corresponding values for MMV689244 are 107%, 115% and 90.1%.
